Laboratory results reported in US8729014B2, “Specific HCV NS3 protease inhibitors” (RFS Pharma, LLC, priority 2010, dated 2014).

Tests used:
[1] = target: Hepatitis C Virus NS3/4A protease Wild Type (Hepatitis C virus genotype 1b, UniProt O92972); assay: HCV NS3/4A protease FRET assay, wild type; assay type: biochemical
Protocol: The HCV NS3/4A protease assays were carried out using a SensoLyte® 490 HCV Protease Assay Kit using fluorescence resonance energy transfer (FRET) peptide (AnaSpec).

[2] = test system: Hepatitis C Virus NS3/4A protease D168A; assay: biochemical; conditions: D168A vs Wild Type
[3] = target: Hepatitis C Virus NS3/4A protease D168A (Hepatitis C virus genotype 1b, UniProt O92972, D1194A); assay: biochemical
Hepatitis C Virus NS3/4A protease D168A (Hepatitis C virus genotype 1b, UniProt O92972, D1194A), sequence (O92972 1027-1657 D1194A): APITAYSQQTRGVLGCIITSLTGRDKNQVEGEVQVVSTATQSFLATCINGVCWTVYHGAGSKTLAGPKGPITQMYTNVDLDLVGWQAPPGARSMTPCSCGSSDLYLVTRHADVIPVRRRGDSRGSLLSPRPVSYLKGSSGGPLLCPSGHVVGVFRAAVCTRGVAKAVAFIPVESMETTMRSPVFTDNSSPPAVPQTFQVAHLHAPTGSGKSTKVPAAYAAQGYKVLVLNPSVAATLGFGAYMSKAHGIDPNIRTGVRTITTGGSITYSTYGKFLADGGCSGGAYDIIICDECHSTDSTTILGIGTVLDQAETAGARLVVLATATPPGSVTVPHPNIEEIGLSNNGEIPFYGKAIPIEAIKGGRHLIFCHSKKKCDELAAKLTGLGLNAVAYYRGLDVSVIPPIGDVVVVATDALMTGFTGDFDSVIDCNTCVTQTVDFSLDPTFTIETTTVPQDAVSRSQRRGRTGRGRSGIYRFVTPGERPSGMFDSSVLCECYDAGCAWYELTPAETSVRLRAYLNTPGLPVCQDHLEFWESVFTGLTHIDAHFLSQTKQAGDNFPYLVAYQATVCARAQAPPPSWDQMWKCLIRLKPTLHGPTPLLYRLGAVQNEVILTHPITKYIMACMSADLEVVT
Hepatitis C Virus NS3/4A protease D168A (Hepatitis C virus genotype 1b, UniProt O92972, D1194A), sequence (O92972 1658-1711 partner limits assumed): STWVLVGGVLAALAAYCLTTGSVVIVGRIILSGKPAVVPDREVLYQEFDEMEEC

[4] = Cytotoxicity assay in Vero cells; assay type: cell-based; conditions: African green monkey, Vero cells
Protocol: (§1) The toxicity of the compounds was assessed in Vero, human PBM, CEM (human lymphoblastoid), MT-2, and HepG2 cells, as described previously (see Schinazi R. F., Sommadossi J.-P., Saalmann V., Cannon D. L., Xie M.-Y., Hart G. C., Smith G. A. & Hahn E. F. Antimicrob. Agents Chemother. 1990, 34, 1061-67). Cycloheximide was included as positive cytotoxic control, and untreated cells exposed to solvent were included as negative controls. The cytotoxicity IC50 was obtained from the concentration-response curve using the median effective method described previously (see Chou T.-C. & Talalay P. Adv. Enzyme Regul. 1984, 22, 27-55; Belen'kii M. S. & Schinazi R. F. Antiviral Res. 1994, 25,1-11).

Vero cells = assay: Cytotoxicity assay in Vero cells; assay type: cell-based; conditions: Chlorocebus sabaeus; VERO cells, 100 μM
Protocol: as §1

[5] = target: T1, Hepatitis C Virus NS3/4A protease V170A (UniProt Q9WMX2, V1196A, species not given); assay type: biochemical; conditions: V170A
T1 construct: other: V170A; Anti-HCV protease activity EC90

[6] = test system: Hepatitis C Virus NS3/4A protease V170A; assay type: biochemical; conditions: V170A vs Wild Type
Cathepsin S = target: T2, Cathepsin S (Homo sapiens, UniProt P25774); assay: Inhibition of human proteases: cathepsin S; assay type: biochemical
T2 construct: purchased Anaspec
T2 sequence (P25774 115-331): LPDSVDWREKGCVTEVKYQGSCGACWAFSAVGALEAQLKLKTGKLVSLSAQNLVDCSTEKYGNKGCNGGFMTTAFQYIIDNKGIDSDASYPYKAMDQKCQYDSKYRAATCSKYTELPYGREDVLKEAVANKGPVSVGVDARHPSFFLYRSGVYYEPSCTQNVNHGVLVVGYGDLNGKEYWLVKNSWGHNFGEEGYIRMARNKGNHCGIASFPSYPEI
Protocol: In an effort to circumvent similar toxicities, new protease inhibitors were evaluated for inhibition of a panel of important human proteases. The enzymes tested are Elastase (Neutrophil), Plasmin, Thrombin, and Cathepsin S.
Cathespsin S (Sensolyte Cathepsin S Activity Assay Kit (Anaspec)): Reactions were conducted in a sample volume of 100 μL per well in a black 96 well plate. Protocol A was followed from the kit insert where DTT was added to assay buffer to yield a […] concentration. Included in each assay were a positive control (diluted enzyme and no test compound), inhibitor control (contains diluted enzyme and plasmin inhibitor; component E or thrombin inhibitor; N-a-NAPAP synthetic inhibitor) and substrate control (assay buffer and substrate). Vehicle and autofluorescence controls were also performed. Drug dilutions were added (10 μL) at 10× concentrations in assay buffer. The cathepsin S was added at 40 μL/well at a concentration of 2.5 μg/mL to all wells except the substrate control. Finally, 50 µL of assay buffer containing substrate was added to each well. The substrate was added to a final concentration of 16 nM. […] The fluorescence intensity was read on the Victor 3 plate reader at Ex/Em=490 nm/520 nm. […] Results are shown as substrate control adjusted percentages of maximum absorbance, which was given by the positive control.

[7] = test system: Hepatitis C Virus NS3/4A protease R155K; assay: biochemical; conditions: R155K vs Wild Type
[8] = target: Hepatitis C Virus NS3/4A protease R155K (Hepatitis C virus genotype 1b, UniProt O92972, R1181K); assay: biochemical
Hepatitis C Virus NS3/4A protease R155K (Hepatitis C virus genotype 1b, UniProt O92972, R1181K), sequence (O92972 1027-1657 R1181K): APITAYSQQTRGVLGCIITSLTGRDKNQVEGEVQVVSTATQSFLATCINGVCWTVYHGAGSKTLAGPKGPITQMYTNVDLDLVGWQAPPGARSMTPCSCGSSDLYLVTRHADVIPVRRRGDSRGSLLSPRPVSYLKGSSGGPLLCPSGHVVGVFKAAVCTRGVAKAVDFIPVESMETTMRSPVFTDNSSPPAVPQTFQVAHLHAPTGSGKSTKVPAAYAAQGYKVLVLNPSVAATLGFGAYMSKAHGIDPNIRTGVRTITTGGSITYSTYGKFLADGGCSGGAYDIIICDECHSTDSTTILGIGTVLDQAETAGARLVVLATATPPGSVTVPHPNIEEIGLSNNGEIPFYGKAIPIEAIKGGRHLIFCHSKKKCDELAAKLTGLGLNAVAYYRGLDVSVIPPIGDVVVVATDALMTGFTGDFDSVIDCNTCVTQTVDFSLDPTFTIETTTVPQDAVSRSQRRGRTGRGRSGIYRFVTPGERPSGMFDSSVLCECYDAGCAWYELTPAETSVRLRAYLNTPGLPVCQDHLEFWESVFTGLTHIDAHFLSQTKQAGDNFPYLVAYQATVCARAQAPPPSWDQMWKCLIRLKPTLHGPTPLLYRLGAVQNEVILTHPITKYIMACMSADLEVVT
Hepatitis C Virus NS3/4A protease R155K (Hepatitis C virus genotype 1b, UniProt O92972, R1181K), sequence (O92972 1658-1711 partner limits assumed): as the sequence (O92972 1658-1711 partner limits assumed) above

[9] = target: Hepatitis C Virus NS3/4A protease V36M (Hepatitis C virus genotype 1b, UniProt O92972, V1062M); assay: HCV NS3/4A protease FRET assay, V36M; assay type: biochemical
Hepatitis C Virus NS3/4A protease V36M, sequence (O92972 1027-1657 V1062M): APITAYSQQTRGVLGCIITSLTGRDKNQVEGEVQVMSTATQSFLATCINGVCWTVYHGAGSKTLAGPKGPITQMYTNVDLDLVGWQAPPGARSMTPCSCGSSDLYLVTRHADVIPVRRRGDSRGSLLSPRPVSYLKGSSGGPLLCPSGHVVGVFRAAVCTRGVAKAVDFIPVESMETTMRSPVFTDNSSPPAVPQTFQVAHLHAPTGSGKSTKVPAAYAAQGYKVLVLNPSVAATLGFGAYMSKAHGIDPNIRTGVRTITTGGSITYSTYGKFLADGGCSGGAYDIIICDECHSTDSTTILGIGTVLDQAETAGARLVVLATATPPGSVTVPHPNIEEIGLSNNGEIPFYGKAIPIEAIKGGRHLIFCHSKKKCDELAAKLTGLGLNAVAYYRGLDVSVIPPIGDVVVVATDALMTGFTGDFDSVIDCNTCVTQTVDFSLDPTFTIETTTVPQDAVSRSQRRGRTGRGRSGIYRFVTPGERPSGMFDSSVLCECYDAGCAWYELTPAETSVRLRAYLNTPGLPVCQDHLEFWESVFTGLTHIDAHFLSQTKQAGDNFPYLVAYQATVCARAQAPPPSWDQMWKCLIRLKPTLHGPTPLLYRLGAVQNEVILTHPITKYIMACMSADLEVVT
Hepatitis C Virus NS3/4A protease V36M, sequence (O92972 1658-1711 partner limits assumed): as the sequence (O92972 1658-1711 partner limits assumed) above

[10] = test system: HCV replicon RNA in Huh 7 Clone B cells; assay: HCV replicon assay (replicon RNA, real time RT-PCR); assay type: cell-based; conditions: for DCt HCV / HCV (% inhibition of replicon RNA): five days
Protocol: Following five days incubation (37° C., 5% CO2), total cellular RNA was isolated by using versaGene RNA purification kit from Gentra. Replicon RNA and an internal control (TaqMan rRNA control reagents, Applied Biosystems) were amplified in a single step multiplex Real Time RT-PCR Assay. The antiviral effectiveness of the compounds was calculated by subtracting the threshold RT-PCR cycle of the test compound from the threshold RT-PCR cycle of the no-drug control (ΔCt HCV). A ΔCt of 3.3 equals a 1-log reduction (equal to 90% less starting material) in Replicon RNA levels. The cytotoxicity of the compounds was also calculated by using the ΔCt rRNA values. (2′-Me-C) was used as the control. To determine EC90 and IC50 values^2, ΔCt: values were first converted into fraction of starting material^3 and then were used to calculate the % inhibition.

[11] = read-out: Anti-HCV protease activity EC50
[12] = read-out: Anti-HCV protease activity EC90
[13] = Hepatitis C virus, HCV replicon, Huh 7 Clone B cells

Hepatitis C Virus NS3/4A protease Wild Type, sequence (O92972 1027-1657): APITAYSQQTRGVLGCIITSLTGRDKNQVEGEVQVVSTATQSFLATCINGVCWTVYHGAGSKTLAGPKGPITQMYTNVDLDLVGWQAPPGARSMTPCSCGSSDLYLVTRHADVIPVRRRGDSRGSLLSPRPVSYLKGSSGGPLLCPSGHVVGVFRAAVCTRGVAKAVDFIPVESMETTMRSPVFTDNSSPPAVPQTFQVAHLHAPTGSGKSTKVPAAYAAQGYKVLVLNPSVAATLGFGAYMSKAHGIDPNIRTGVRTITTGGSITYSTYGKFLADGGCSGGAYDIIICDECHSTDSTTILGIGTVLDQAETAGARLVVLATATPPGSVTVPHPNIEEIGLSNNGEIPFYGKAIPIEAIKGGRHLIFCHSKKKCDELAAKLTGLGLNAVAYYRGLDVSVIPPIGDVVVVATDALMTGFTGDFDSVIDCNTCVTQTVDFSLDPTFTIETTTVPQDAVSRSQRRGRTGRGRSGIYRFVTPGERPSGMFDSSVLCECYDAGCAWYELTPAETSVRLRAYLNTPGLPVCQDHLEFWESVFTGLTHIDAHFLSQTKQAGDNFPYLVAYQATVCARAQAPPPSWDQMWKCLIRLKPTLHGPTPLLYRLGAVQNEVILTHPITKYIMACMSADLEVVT

C=C[C@@H]1C[C@]1(NC(=O)[C@@H]1C[C@@H](OC(=O)N2Cc3cccc(F)c3C2)CN1C(=O)[C@@H](NC(=O)OC(C)(C)C)C(C)(C)C)C(=O)NS(=O)(=O)C1CC1 [Compound 10]
Fold Increase of EC50 [1]: 1.0
Fold Increase of EC90 [1]: 1.0
EC50 [1, 11]: 4.9 nM
EC90 [1, 12]: 30 nM
Fold Increase of EC50 [2]: 115.3
Fold Increase of EC90 [2]: 278.5
EC50 [3]: 570 nM
EC90 ([3]; D168A, read-out: Anti-HCV protease activity EC90): 8.3 µM
IC50 [4]: > 100 µM
inhibition at 100 µM (Vero cells): -0.8%
EC50 [5, 11]: 5.5 nM
EC90 [5, 12]: 9.5 nM
Fold Increase of EC50 [6]: 1.1
Fold Increase of EC90 [6]: 0.3
IC50 (Cathepsin S): > 100 µM
Fold Increase of EC50 [7]: 55.8
Fold Increase of EC90 [7]: 91.4
EC50 [8]: 270 nM
EC90 ([8]; R155K, read-out: Anti-HCV protease activity EC90): 2700 nM
Fold Increase of EC50 ([9]; V36M vs Wild Type): 0.7
Fold Increase of EC90 ([9]; V36M vs Wild Type): 1.5
EC50 ([9]; V36M, read-out: Anti-HCV protease activity EC50): 3.4 nM
EC90 ([9]; V36M, read-out: Anti-HCV protease activity EC90): 45.5 nM
DCt HCV ([10]; Conc 0.01 μM): 1.16
HCV (% inhibition of replicon RNA) ([10]; Conc 0.01 μM): 54.99
DCt HCV ([10]; Conc 0.03 μM): 3.29
HCV (% inhibition of replicon RNA) ([10]; Conc 0.03 μM): 89.67
DCt HCV ([10]; Conc 0.1 μM): 6.05
HCV (% inhibition of replicon RNA) ([10]; Conc 0.1 μM): 98.47
DCt HCV ([10]; Conc 0.3 μM): 8.72
HCV (% inhibition of replicon RNA) ([10]; Conc 0.3 μM): 99.76
EC50 [10, 13]: 10 nM
EC90 [10, 13]: 30 nM
